Assay results from PubChem BioAssay AID624408 (The Scripps Research Institute Molecular Screening Center, 2012).
Active and inactive are the calls of the source.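 Rule for the calls: active = IC50 at or below 10 µM; inactive = IC50 above 10 µM.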

The compounds below were run on parental CHO-K1, ATP-induced calcium, Fluo-8 fluorescence (assay: Gq calcium signaling inhibition in parental CHO, late-stage follow-up, artefact control for OX1R antagonist project, cell-based, fluorescence, dose response (AID 624408)).
In the case of `COc1ccc(OC)c(S(=O)(=O)NCC(c2ccco2)N2CCc3ccccc32)c1` (stereo unspecified), the IC50 is reported as > 59.6 µM (inactive). `COc1cc(OC)c(-c2nc3ccccc3s2)cc1OC` was tested, and the IC50 was > 59.6 µM (inactive). For `Cc1ccccc1NC(=O)C1CCCN1S(=O)(=O)c1ccccc1C(F)(F)F` (stereo unspecified), the IC50 was > 59.6 µM (inactive). With `CCSC1=C(C#N)C(c2ccccc2Cl)C(C(=O)c2cccs2)C(O)(C(F)(F)F)N1` (stereo unspecified) the IC50 was 21.8 µM (inactive). For `Cc1ccc(-c2csc3nnc(SCC(=O)Nc4nsc(-c5ccccc5)n4)n23)cc1`, the IC50 was > 59.6 µM (inactive). For `Cc1noc(C)c1COc1ccc(C(=O)OCC(=O)N2CC(=O)Nc3ccccc32)cc1`, the IC50 was > 59.6 µM (inactive). With `CSc1cccc(NC(=O)C2CCCN2S(=O)(=O)c2ccc(Br)s2)c1` (stereo unspecified) the IC50 was 20.4 µM (inactive). For `CC(=C/c1ccccc1)/C=C1/SC(N2CCOCC2)=NC1=O`, the IC50 was 52.1 µM (inactive). With `COCCCNC(=O)CCC(=O)NNc1nc2ccccc2c2nc(-c3ccccc3)nn12` the IC50 was > 59.6 µM (inactive). With `Fc1cccc(Nc2nc3ccccc3n3cnnc23)c1` the IC50 was > 59.6 µM (inactive). In the case of `Cc1c(NS(=O)(=O)c2cccc(C(=O)OCC(=O)N(C)C3CCCCC3)c2)c(=O)n(-c2ccccc2)n1C`, the IC50 is reported as > 59.6 µM (inactive). For `O=C(CN1C(=O)/C(=C\c2cccc(Br)c2)Oc2ccccc21)NCC1CCCO1` (stereo unspecified), the IC50 was > 59.6 µM (inactive). With `CCc1cc(C(=O)OCC(=O)N2CCC(c3ccccc3)=N2)sc1C` the IC50 was > 59.6 µM (inactive). With `O=c1cc(CN2CC(O)Cc3ccc4ccccc4c32)nc2sccn12` (stereo unspecified) the IC50 was 55.4 µM (inactive). With `CCOC(=O)N1CCN(C(=O)CSc2ccc(-c3ccccc3)nn2)CC1` the IC50 was > 59.6 µM (inactive). For `CCn1c(SCC(=O)Nc2ccc3c(c2)c2ccccc2n3CC)nnc1-c1cnccn1`, the IC50 was > 59.6 µM (inactive). For `CCOc1ccccc1C(=O)Nc1ccc2nc3n(c(=O)c2c1)CCCCC3`, the IC50 was > 59.6 µM (inactive). With `Cc1cccc(NC(=O)[C@@H]2CCCN2S(=O)(=O)c2ccc(Cl)cc2)c1` the IC50 was > 59.6 µM (inactive). `Cc1cccc(C=NNC(=O)c2cc3c(s2)-c2ccccc2CC3)c1` was tested, and the IC50 was > 59.6 µM (inactive). For `O=C(CSc1ccc(-c2ccccc2)nn1)c1cccs1`, the IC50 was > 59.6 µM (inactive). `Cc1cc(Cl)ccc1OCCCC(=O)NCCN1C(=O)S/C(=C\c2cccnc2)C1=O` showed an IC50 of 7.22 µM. With `COc1cccc(/C=C2/Oc3ccccc3N(CC(=O)NCC3CCCO3)C2=O)c1` (stereo unspecified) the IC50 was > 59.6 µM (inactive). For `CSc1cccc(N2CC(C(=O)NCCN3C(=O)S/C(=C\c4cccnc4)C3=O)CC2=O)c1` (stereo unspecified), the IC50 was > 59.6 µM (inactive). With `CCc1cc2c(SCC(=O)N(CC)c3c(N)n(Cc4ccccc4)c(=O)[nH]c3=O)ncnc2s1` the IC50 was > 59.6 µM (inactive). For `CN(N=Cc1cc([N+](=O)[O-])ccc1O)c1ccccc1`, the IC50 was > 59.6 µM (inactive). For `CCN(CC)c1ccc(NC(=O)Cn2c(C(C)NC(=O)c3ccccc3)nc3ccccc32)cc1` (stereo unspecified), the IC50 was > 59.6 µM (inactive).
